Structures are written as SMILES.

As a reminder, the melting point is the temperature of the solid-liquid transition. Compound `CCOc1cc(C(CS(C)(=O)=O)N2C(=O)c3cccc(NC(=O)C4CCCC4)c3C2=O)ccc1OC` (centres unmarked) [Example 45, Cyclopentyl-N-{2-[1-(3-ethoxy-4-methoxyphenyl)-2-(methylsulfonyl)ethyl]-1,3-dioxoisoindolin-4-yl}carboxamide] returned a melting point of 134 to 136 °C. For the compound `CCOc1cc(C(CS(C)(=O)=O)N2C(=O)c3cccc(CONC=O)c3C2=O)ccc1OC` (centres unmarked) [Example 12, N-{2-[1-(3-Ethoxy-4-methoxyphenyl)-2-methylsulfonylethyl]-1,3-dioxoisoindolin-4-yl}methoxycarboxamide], the melting point lay within 178 to 180 °C. As to `CCOc1cc(C(CS(C)(=O)=O)N2C(=O)c3cccc(NC(=O)C(C)N(C)C)c3C2=O)ccc1OC.Cl` (centres unmarked), the melting point fell in the range of 138 to 140 °C. The figure for `COc1ccc(C(CS(C)(=O)=O)N2C(=O)c3cccc(NC(=O)CN(C)C)c3C2=O)cc1OC.Cl` (centres unmarked) is 178 to 180 °C; for `COc1ccc(C(CC(C)=O)N2C(=O)c3cccc(N(S(C)(=O)=O)S(C)(=O)=O)c3C2=O)cc1OC` (centres unmarked) [Example 78, 2-[1-(3,4-Dimethoxyphenyl)-3-oxobutyl]-4-[bis(methylsulfonyl)amino]isoindoline-1,3-dione] it is 194 to 196 °C; for `CCOc1cc(C(CS(C)(=O)=O)N2C(=O)c3cccc(NC(=O)C(F)(F)F)c3C2=O)ccc1OC` (centres unmarked) [Example 11, N-{2-[1-(3-ethoxy-4-methoxyphenyl)-2-methylsulfonylethyl]-1,3-dioxoisoindolin-4-yl}-2,2,2-trifluoroacetamide] it is 130 to 132 °C. With `CCOc1cc([C@H](CS(C)(=O)=O)N2C(=O)c3cccc(NC(=O)CN(C)C)c3C2=O)ccc1OC.Cl` the figure was 192 to 194 °C; with `CCOc1cc(C(CS(C)(=O)=O)N2C(=O)c3ccc([N+](=O)[O-])c([N+](=O)[O-])c3C2=O)ccc1OC` (centres unmarked), 122 to 124 °C; with `CCOc1cc(C(CS(C)(=O)=O)N2Cc3cccc(NC(=O)CN(C)C)c3C2=O)ccc1OC.Cl` (centres unmarked), 145 to 147 °C. The compound `CCOc1cc([C@@H](CC(C)=O)N2C(=O)c3cccc(NC(C)=O)c3C2=O)ccc1OC` [Example 27, N-{2-[1R-(3-ethoxy-4-methoxyphenyl)-3-oxobutyl]-1,3-dioxoisoindolin-4-yl}acetamide] had a melting point of 81 to 83 °C. With `CCOc1cc([C@@H](CS(C)(=O)=O)N2C(=O)c3cccc(NC(=O)C4CC4)c3C2=O)ccc1OC` [Example 51, Cyclopropyl-N-{2-[(1S)-1-(3-ethoxy-4-methoxyphenyl)-2-(methylsulfonyl)ethyl]-1,3-dioxoisoindolin-4-yl}carboxamide] the figure was 140 to 141 °C. With `CCOc1cc(C(CC(=O)CC)N2C(=O)c3cccc(NC(C)=O)c3C2=O)ccc1OC` (centres unmarked) [Example 72, N-{2-[1-(3-Ethoxy-4-methoxyphenyl)-3-oxopentyl]1,3-dioxoisoindolin-4-yl}acetamide] the figure was 137 to 139 °C.

With `CCOc1cc([C@@H](CC(=O)N(C)C)N2C(=O)c3cccc(NC(=O)CN(C)C)c3C2=O)ccc1OC.Cl`, the melting point lay within 122 to 124 °C. The figure for `CCOc1cc(C(CS(C)(=O)=O)N2C(=O)c3cccc(N(S(C)(=O)=O)S(C)(=O)=O)c3C2=O)ccc1OC` (centres unmarked) [Example 69, 4-[Bis(methylsulfonyl)amino]-2-[1-(3-ethoxy-4-methoxyphenyl)-2-(methyl-sulfonyl)ethyl]isoindoline-1,3-dione] is 277 to 279 °C.

With `COc1ccc(C(CS(C)(=O)=O)N2C(=O)c3cccc(NC(=O)C4CC4)c3C2=O)cc1OC` (centres unmarked) [Example 54, Cyclopropyl-N-{2-[1-(3,4-dimethoxyphenyl)-2-(methylsulfonyl)ethyl]-1,3-dioxoisoindolin-4-yl}carboxamide], the melting point was in the range of 130 to 132 °C. `CCOc1cc(C(CC(=O)N(C)C)N2C(=O)c3cccc(NC(=O)CN(C)C)c3C2=O)ccc1OC.Cl` (centres unmarked) registered a melting point of 92 to 94 °C. Take `CCOc1cc(C(CS(C)(=O)=O)N2C(=O)c3cccc(-c4nnc(C)o4)c3C2=O)ccc1OC` (centres unmarked) [Example 15, 2-[1-(3-Ethoxy-4-methoxyphenyl)-2-methylsulfonylethyl]-4-(5-methyl-1,3,4-oxadiazol-2-yl)isoindoline-1,3-dione]: the melting point was in the range of 99 to 101 °C. In turn, `CCOc1cc(C(CS(C)(=O)=O)N2C(=O)c3cccc(NC(=O)CCN(C)C)c3C2=O)ccc1OC` (centres unmarked) [Example 46, 3-(Dimethylamino)-N-{2-[1-(3-ethoxy-4-methoxyphenyl)-2-(methylsulfonyl)ethyl]-1,3-dioxoisoindolin-4-yl}propanamide] showed a melting point of 163 to 165 °C. The figure for `CCOc1cc([C@@H](CC(=O)N(C)C)N2Cc3cccc(NC(C)=O)c3C2=O)ccc1OC` [Example 59, (3R)-3-[7-(Acetylamino)-1-oxoisoindolin-2-yl]-3-(3-ethoxy-4-methoxyphenyl)-N,N-dimethylpropanamide] is 88 to 90 °C; for `CCOc1cc(C(CC(C)O)N2C(=O)c3cccc(NC(C)=O)c3C2=O)ccc1OC` (centres unmarked) [Example 24, N-{2-[1-(3-ethoxy-4-methoxyphenyl)-3-hydroxybutyl]-1,3-dioxoisoindolin-4-yl}acetamide] it is 132 to 134 °C; for `COc1ccc(C(CC(C)=O)N2C(=O)c3cccc(NC(C)=O)c3C2=O)cc1OC1CCCC1` (centres unmarked) [Example 76, N-{2-[1-(3-Cyclopentyloxy-4-methoxyphenyl)-3-oxobutyl]-1,3-dioxoisoindolin-4-yl}acetamide] it is 145 to 147 °C. With `CCOc1cc([C@@H](CS(C)(=O)=O)N2C(=O)c3cccc(NC(=O)CN(C)C)c3C2=O)ccc1OC.Cl` the figure was 202 to 204 °C; with `CCOc1cc([C@@H](CC(=O)N(C)C)N2Cc3cccc(NC(=O)C4CC4)c3C2=O)ccc1OC` [Example 60, (3R)-3-[7-(Cyclopropylcarbonylamino)-1-oxoisoindolin-2-yl]-3-(3-ethoxy-4-methoxyphenyl)-N,N-dimethylpropanamide], 92 to 94 °C.

Consider `CCOc1cc(C(CC(C)=O)N2C(=O)c3cccc(NC(C)=O)c3C2=O)ccc1OC` (centres unmarked) [Example 25, N-{2-[1-(3-Ethoxy-4-methoxyphenyl)-3-oxobutyl]-1,3-dioxoisoindolin-4-yl}acetamide], for which the melting point lay in the range of 128 to 129 °C. `CCOc1cc(C(CS(C)(=O)=O)N2C(=O)c3cccc(NC(=O)CN)c3C2=O)ccc1OC` (centres unmarked) [Example 9, 2-Amino-N-{2-[1-(3-ethoxy-4-methoxyphenyl)-2-methylsulfonylethyl]-1,3-dioxoisoindolin-4-yl}acetamide] displayed a melting point of 111 to 112 °C. Consider `CCOc1cc(C(CS(C)(=O)=O)N2C(=O)c3cccc(NC(=O)C4CC4)c3C2=O)ccc1OC` (centres unmarked) [Example 7, Cyclopropyl-N-{2-[1-(3-ethoxy-4-methoxyphenyl)-2-methylsulfonylethyl]-1,3-dioxoisoindolin-4-yl}carboxamide], for which the melting point was 153 to 155 °C. `CCOc1cc(C(CS(C)(=O)=O)N2C(=O)c3cccc(CNC(C)=O)c3C2=O)ccc1OC` (centres unmarked) [Example 66, N-({2-[1-(3-Ethoxy-4-methoxyphenyl)-2-(methylsulfonyl)ethyl]-1,3-dioxoisoindolin-4-yl}methyl)acetamide]: the melting point lay in the range of 84 to 86 °C. Consider `CCOc1cc(C(CS(C)(=O)=O)N2C(=O)c3ccc(N)c(N)c3C2=O)ccc1OC` (centres unmarked) [Example 2, 2-[1-(3-Ethoxy-4-methoxyphenyl)-2-methylsulfonylethyl]-4,5-diaminoisoindoline-1,3-dione], for which the melting point lay within 205 to 207 °C. Compound `CCOc1cc(C(CS(C)(=O)=O)N2C(=O)c3cccc(NC(=O)CCl)c3C2=O)ccc1OC` (centres unmarked) [Example 8, 2-Chloro-N-{2-[1-(3-ethoxy-4-methoxyphenyl)-2-methylsulfonylethyl]-1,3-dioxoisoindolin-4-yl}acetamide] gave a melting point of 166 to 168 °C.
